Laboratory results from patent US8758833B2, “Cosmetic composition for the treatment of acne comprising a peptide extract of Schisandra” (Laboratoires Expanscience, priority 2009, dated 2014).

What was measured:
[1] = test system: IL-1α released by keratinocytes; experiment: Assay of IL-1α released by PMA-stimulated keratinocytes (ELISA); assay type: cell-based
Description: (§1) Keratinocytes were seeded in 24-well plates in KGM2 medium. After 24 hours of incubation, the cells were pretreated with Schisandra peptides for 24 hours. Next, the cells were stimulated by adding […] PMA (phorbol 12-myristate 13-acetate, Sigma) for 24 hours.
(§2) After the treatment, the cell supernatants were collected and IL-1α and VEGF were assayed using ELISA kits (R&D Systems) according to the manufacturer's instructions.
(§3) An MTT (IL-1α) or neutral red (VEGF) test was carried out on the cell layers: OD, proportional to the quantity of living cells, is read at 570 nm (MTT) or 540 nm (red neutral).
(§4) The quantities of IL-1α and VEGF are expressed in pg/ml/OD570 and pg/ml/OD540, respectively.

[2] = test system: VEGF in keratinocytes; experiment: Assay of VEGF in PMA-stimulated keratinocytes (ELISA); assay type: cell-based; conditions: Positive control (PMA) alone; non-stimulated control 208.166
Description: as §1, §2, §3, §4

Row | Compound | inhibition at 0.1 µM ([1]; Keratinocyte, pretreatment with 10^−7 M dexamethasone, keratinocytes stimulated by PMA 24 hours, read-out: inhibition of the IL-1α release induced by PMA) | release of IL-1α induced by stimulation (% vs unstimulated) ([1]; keratinocytes stimulated by PMA for 24 hours) | Average VEGF [2]
1 | C[C@@H]1C[C@H]2[C@@H]3CCC4=CC(=O)C=C[C@]4(C)[C@@]3(F)[C@@H](O)C[C@]2(C)[C@@]1(O)C(=O)CO [dexamethasone] | 100% | – | –
2 | CCCCCCCCCCCCCC(=O)O[C@@H]1[C@@H](C)[C@@]2(O)[C@@H](C=C(CO)C[C@]3(O)C(=O)C(C)=C[C@@H]23)[C@@H]2C(C)(C)[C@]12OC(C)=O [PMA, phorbol 12-myristate 13-acetate] | – | +123% | 767.941 pg/mL
